The assay has as its system MAP-rich tubulin. Description: 96-well plate polymerization assay of tubulin ligands with lyophilized active tubulin. Type of assay: biochemical, bovine. Particulars: for rate of polymerization with increasing concentration: 20 minutes at 24° C., 100 μg/well MAP-rich tubulin; for effect on microtubule polymerization (O.D. 340 nm): 60 minutes at 24° C., 96-well plate.

Description: The dried powder was resuspended to 1 mg/ml protein in the G-PEM buffer that contained different tubulin ligands. The reactions were incubated at 24° C. and the optical density was determined between T=O and T=60 min. Wells A1, A2—duplicate control reactions; wells B1, B2—Duplicate 3 uM nocodazole reactions, and wells C1, C2—Duplicate 3 uM paclitaxel reactions. Other duplicate wells contained buffer with a random concentration of nocodazole between 0-30 uM.
Similar protocols were performed as in FIG. 9 legend except that paclitaxel was present at different concentrations and assays were performed in triplicate. Average nucleation (Onset) times, polymerization rates and maximum OD340 nm were compared to the control reactions (no drug) using CytoDYNAMIX Screen™ data analysis package (Cytoskeleton, Inc.).
Similar protocols were performed as in FIG. 9 legend except that nocodazole was present at different concentrations and assays were performed in triplicate. Average nucleation (Onset) times, polymerization rates and maximum OD340 nm were compared to the control reactions (no drug) using CytoDYNAMIX Screen™ data analysis package (Cytoskeleton, Inc.).
Nocodazole is similarly used as a negative control since it depolymerizes microtubules. Substances that may potentially have an effect on microtubule polymerization can be assayed by this method in which the optical density was measured at 340 nm over 60 minutes at a temperature sufficient to support polymerization (i.e., 15-45° C., preferably 24° C. for MAP-rich or 37° C. for pure tubulin).
MAP-rich tubulin (100 μg/well) was lyophilized under the optimal conditions described in Example 1, in a 96-well plate. Ninety-six wells in a 96-well plate of lyophilized tubulin can be simultaneously reconstituted and their polymerization measured (See FIG. 8). […] In a similar manner, using an 8-channel hand held pipettor, various random nocodazole concentrations were tested for activity. In addition, controls were added to the assay. […] Nocodazole was similarly used as a negative control since it depolymerizes microtubules. The optical density was measured at 340 nm over 60 minutes at 24° C. as an indication of microtubule polymerization (See FIG. 9).
Paclitaxel and nocodazole, anti-tumor agents, were assayed in G-PER buffer with lyophilized active tubulin.

For `COC(=O)Nc1nc2ccc(C(=O)c3cccs3)cc2[nH]1` [nocodazole], the “rate of polymerization with increasing concentration” value is reported as “decrease in the rate of polymerization” and the “effect on microtubule polymerization (O.D. 340 nm)” value was “negative”.
For `CC(=O)O[C@H]1C(=O)[C@@]2(C)[C@H]([C@H](OC(=O)c3ccccc3)[C@]3(O)C[C@H](OC(=O)[C@H](O)[C@@H](NC(=O)c4ccccc4)c4ccccc4)C(C)=C1C3(C)C)[C@]1(OC(C)=O)CO[C@@H]1C[C@@H]2O` [paclitaxel], in that order: “increased rate of polymerization” and “enhancing”.
